Measured values as given in the METLIN SMRT retention time set (Domingo-Almenara et al. 2019).

Assay: gradient 5% acetonitrile 3 min, to 50% in 2 min, to 85% in 15 min, held 3 min, 100 µL/min
Settings: column: Zorbax Extend-C18 2.1 x 50 mm; eluents: water / acetonitrile, 0.1% formic acid
How it was run: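 Pure standards were run in mixtures of ~100 molecules by HPLC coupled to a quadrupole time-of-flight mass spectrometer. The column was a Zorbax Extend-C18 (2.1 × 50 mm, 1.8 μm) at 100 μL/min, with water and acetonitrile each containing 0.1% formic acid, in positive and negative ionization mode. Dead and dwell volumes were 40 μL and 900 μL. Retention time was taken from computationally picked adduct peaks, each manually inspected, with data collected over 3 months.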

Row | RP-LC retention time | SMILES
1 | 739 s | CCn1cc(CC(=O)NCc2cc(F)cc(F)c2)c2cccnc21
2 | 779 s | O=C(CN1C(=O)C2CCCCN2c2ccc(C(=O)N3CCCC3)cc21)Nc1ccc2c(c1)OCCO2 (stereo not given)
3 | 1080 s | CCCCNC(=O)c1cn(CC)nc1S(=O)(=O)N1CCN(c2ccccc2OCC)CC1
4 | 957 s | O=C1[C@H]2CN(Cc3cc(F)cc(F)c3)C[C@H]2C(=O)N1CCc1ccccc1
5 | 674 s | CCc1ccc(Nc2c(C(=O)N3CCCCC3C)cnc3nc(C)ccc23)cc1 (stereo not given)
6 | 1060 s | COc1cc(CNC(=O)C2CCCN(c3nccnc3Sc3ccc(C)cc3)C2)cc(OC)c1 (stereo not given)
7 | 650 s | O=C(c1cccnc1)N1CCC(n2nc(-c3ccsc3)ccc2=O)CC1
8 | 990 s | O=C(NC1CCCC1)NC1CCN(c2nc3cccnc3n(Cc3ccccc3)c2=O)CC1
9 | 820 s | CCCn1cc(CCNS(=O)(=O)c2ccccc2F)c2cccnc21
10 | 1330 s | CCOc1ccccc1NC(=O)c1c(O)c2cccnc2n(-c2ccccc2)c1=O
11 | 628 s | Cc1ccc(NC(=O)CSc2ccc(N3CCCC(C(=O)NC4CC4)C3)nn2)cc1C (stereo not given)
12 | 902 s | CCc1nc(OCC(=O)Nc2ccccc2C(=O)OC)c2ccccc2n1
13 | 1110 s | Cc1ccc(C(=O)Nc2nc3c(s2)CN(S(=O)(=O)c2ccccc2)CC3)cc1Br
14 | 698 s | COc1ccc(CCNC(=O)CCn2c(=O)sc3ccccc32)cc1OC
15 | 942 s | Cc1nc(Cn2cccc2C(=O)NCc2ccc(Br)cc2)no1
16 | 615 s | Cc1nn(C(C)C(=O)NCCCN2CCOCC2)c(=O)c2c(C)n(-c3ccccc3)nc12 (stereo not given)
17 | 972 s | CC(C)c1noc(-c2cc(=O)n(CC(=O)Nc3ccccc3)c3ccccc23)n1
18 | 1280 s | Cc1sc(NC(=O)Cc2csc(-c3ccccc3)n2)nc1-c1ccc(Cl)cc1
19 | 1060 s | CC(C)OC(=O)N1CCC(Oc2ncnc3c2cnn3-c2ccc(S(C)(=O)=O)cc2F)CC1
20 | 882 s | COc1ccc(Cn2nccc2NC(=O)COc2ccc(Cl)cc2)cc1
21 | 724 s | O=C1CCCc2cc(S(=O)(=O)N3CCC(C(=O)NCc4ccc(F)cc4)CC3)ccc2N1
22 | 990 s | Cn1nc(-c2nnc(-c3ccccc3)o2)c2c1CCN(S(=O)(=O)c1cccc(Cl)c1)C2
23 | 864 s | Cc1ccc(NC(=O)c2ccc3[nH]c4c(c3c2)CN(C(=O)C2CCC2)CC4)cc1
24 | 577 s | Cc1ccc(-c2[nH]ncc2CN2CCC3(CCC3O)CC2)cc1 (stereo not given)
25 | 585 s | COc1ccc(C(=O)N2CCc3nc(CNC(=O)C4CCC4)n(C)c3C2)cn1
26 | 620 s | Cc1cc(C)c(NC(=O)Cn2ncc3c(N4CCN(c5ccccn5)CC4)ncnc32)c(C)c1

Row | RP-LC retention time | SMILES
27 | 852 s | Cc1cc(-c2ccc(S(=O)(=O)N3CCC(C(=O)NC4CCCCCC4)CC3)o2)n[nH]1
28 | 1060 s | COc1cc(NC(=O)CCSc2ccccc2)c2ncccc2c1
29 | 803 s | Cc1ccc(-c2nccn3cc(C(=O)NC4CC4)nc23)cc1
30 | 874 s | CSc1ccc(NC(=O)N2CCc3c(c(-c4nc(C5CC5)no4)nn3C)C2)cc1
31 | 893 s | COc1ccccc1N1CCN(C(=O)c2cc(S(=O)(=O)N3CCCCC3)cn2C)CC1
32 | 559 s | Cc1cc(C)c2c(N3CCSCC3)nc(C(=O)NCCN3CCCCC3)nc2n1
33 | 697 s | CCn1cnc(S(=O)(=O)N2CCC(C(=O)NCCc3ccccc3)CC2)c1
34 | 639 s | CN1CCN(CCNC(=O)CCc2cn(-c3ccccc3)nc2-c2ccc3c(c2)OCO3)CC1
35 | 647 s | NC(=O)/C(=C\c1ccncc1)c1cccc2ccccc12
36 | 774 s | c1ccc(SCc2nnc3sc(-c4cnccn4)nn23)cc1
37 | 612 s | Cc1c(CN2CCN(C(=O)[C@H](C)O)CC2)sc2c(N3CCOCC3)nc(-c3cnc(N)nc3)nc12
38 | 799 s | CCC(C)C(NC(=O)c1cc(C)cc(C)c1)C(=O)Nc1nc2ccccc2[nH]1 (stereo not given)
39 | 998 s | Cc1sc(-c2nnc(C3CC3)o2)cc1NC(=O)C(C)c1ccccc1 (stereo not given)
40 | 787 s | CC(C)c1noc(C2CCCN(S(=O)(=O)c3cccs3)CCC(=O)NCC2)n1 (stereo not given)
41 | 700 s | COc1cccc(NC(=O)Cn2nc3c(N4CCCCCC4)nccn3c2=O)c1
42 | 630 s | Cn1c(CNC(=O)C2(Cc3ccccc3)CCCCC(=O)N2)nc2ccccc21 (stereo not given)
43 | 662 s | Cn1c(=O)cnc2ccc(N3CCOCC3)nc21
44 | 654 s | CCn1cc(CCNC(=O)C2CCCC2)c2cccnc21
45 | 599 s | CN(CCNC(=O)c1ccc(CN2C(=O)CCn3nccc32)cc1)C1CCCCC1
46 | 665 s | O=C(Cn1nc2c3ccccc3ncn2c1=O)Nc1ccc2c(c1)OCO2
47 | 955 s | Cc1ccc(C(=O)NC(C)CCc2ccccc2)cc1NC(=O)C1=CSCCO1 (stereo not given)
48 | 598 s | CCC(CC)C(=O)N1CCN(Cc2nc3cc(C(=O)N4CCCC4)ccc3n2C)CC1
49 | 926 s | O=C(Nc1cccc(OCc2nnc(-c3ccccc3)o2)c1)c1ccnc(Cl)c1
50 | 869 s | Cc1nc2c(ccc3nc(NC(=O)c4ccccc4Br)sc32)s1
51 | 900 s | CCc1csc(-c2ccc(N3CCN(C(=O)c4cccs4)CC3)nc2)n1
52 | 752 s | O=C(Nc1c(-c2ccc(F)cc2)nc2ccccn12)c1ccc2ccccc2c1

The next lines start with the compound.

Row | SMILES | RP-LC retention time
53 | COC(=O)CC(=O)Nc1cc2c(cc1N1CCOCC1)n(C)c(=O)n2C | 597 s
54 | Cc1[nH]c(C(=O)N2CCC(CC(=O)NCCCN3CCC(N4CCCCC4)CC3)CC2)c(C)c1C | 575 s
55 | COc1ccc(OC)c(NC(=O)Cn2cnc3cc4c(cc32)OCCO4)c1 | 641 s
56 | O=C(c1nc(-c2ccnc(N3CCCC3)c2)no1)N1CCC2(CC1)OCCO2 | 617 s
57 | CCOc1ccc(CNC(=O)Cc2csc3nc(-c4ccc(C)c(C)c4)cn23)cc1OC | 810 s
58 | N#Cc1c(N)nc(N)nc1Nc1ccc(Br)cc1 | 777 s
59 | Cc1cc(C)cc(NC(=O)C2CCCN(S(=O)(=O)c3cn(C(C)C)cn3)C2)c1 (stereo not given) | 876 s
60 | CN(C)S(=O)(=O)N1CCN(S(=O)(=O)c2ccc(F)cc2)CC1 | 757 s
61 | CCNC(=O)NCCC1CCN(S(=O)(=O)c2ccc(C)cc2)CC1 | 748 s
62 | CCN(CC)CCNCc1ccc(-c2ccccc2F)o1 | 562 s
63 | CCn1c(C)c(C(=O)C(C)N(Cc2ccc(F)cc2)C(=O)C2CC2)c(C)c1C(=O)OC (stereo not given) | 1030 s
64 | CCCN1C(=O)c2c(C(=O)NCc3ccccc3C)ncn2CC1(C)C(=O)NCCC(C)C (stereo not given) | 883 s
65 | CCOC(=O)c1noc2nc(C)nc(NCCCN3CCN(c4cc(C)ccc4C)CC3)c12 | 774 s
66 | CCc1noc([C@@H]2CC(F)(F)CN2C(=O)c2occc2C)n1 | 840 s
67 | CCCCS(=O)(=O)N1CCC(c2cc(N)on2)CC1 | 706 s
68 | Cc1nc2cc(-c3noc(Cc4c(F)cccc4Cl)n3)ccc2o1 | 1050 s
69 | CCN(CC)CCNC(=O)c1cn(C)nc1S(=O)(=O)N1CCN(c2cc(Cl)ccc2C)CC1 | 756 s
70 | CC(C)CN1C(=O)c2cccn2CC1C(=O)NCCN1CCOCC1 (stereo not given) | 568 s
71 | Cc1cc(C)cc(N2C(=O)N(CC(=O)N3CCOc4ccc(C)cc43)C3CS(=O)(=O)CC32)c1 (stereo not given) | 962 s

Row | SMILES | RP-LC retention time
72 | Cc1[nH]c2ccccc2c1CCNCc1ccc(/C=C/C(=O)NO)cc1 | 659 s
73 | COCc1noc([C@@H]2CC(F)(F)CN2C(=O)c2occc2C)n1 | 788 s
74 | CCOc1ccc(-c2ccc(=O)n(CCc3nc(-c4cccc(OC)c4OC)no3)n2)cc1 | 952 s
75 | Cc1ccc(NC(=O)NCC2CCOCC2)cc1 | 704 s
76 | Cc1ccc(-c2cc(C(F)(F)F)n3nc(C(=O)O)cc3n2)cc1 | 943 s
77 | COc1ccc(Cl)cc1NC(=O)Cn1ccc2ccc(-c3nnc(C)o3)cc21 | 898 s
78 | CC1=NS(=O)(=O)N(C)C=C1C(=O)OCc1nc(Cc2ccc(C)cc2)no1 | 956 s
79 | Cc1cc(Oc2ncnc3c2cnn3-c2ccc(Cl)cc2)ccc1[N+](=O)[O-] | 1270 s
80 | CCn1ccc(C(=O)N2CC(c3nc(-c4ccsc4)nn3C)C2)n1 | 695 s
81 | COC(=O)CC(=O)Nc1cc2c(cc1N1CCCC1)n(C)c(=O)n2C | 565 s
82 | CC(C)CCNC(=O)C1CCN(S(C)(=O)=O)c2cc(Cl)ccc2O1 (stereo not given) | 923 s
83 | CCOC(=O)/C=C/c1ccc(O)c(OC)c1 | 749 s
84 | Cc1nc(C)c(C(=O)Nc2nc(-c3ccc(Br)cc3)c(C)s2)s1 | 1100 s
85 | CCCNC(=O)c1ccc2cnn(C)c2c1 | 673 s
86 | Cc1nc(-n2nc(C)c(Cl)c2C)sc1C(=O)N1CCOCC1 | 953 s
87 | CCOC(=O)c1sc(NC(=O)c2ccc(Br)cc2F)nc1C | 986 s
88 | CCn1nccc1C(=O)NCC1Cn2cccc2C(=O)N1CC(C)C (stereo not given) | 698 s
89 | Cc1ccc(-c2noc(Cn3ncn4nc(-c5ccc(F)cc5)cc4c3=O)n2)cc1 | 817 s
90 | Cc1oc(-c2[nH]ncc2C(=O)N(C)C)cc1S(=O)(=O)Nc1cccc(Cl)c1C | 725 s
